Measured values: patent US20250171438A1 (Agios Pharmaceuticals, Inc., priority 2022, published 2025)

What follows are compounds tested against T1, human PAH with the R408W mutation (Homo sapiens, UniProt P00439, R408W) (assay: Cell Based Phenylalanine Flux Assay). Conditions: A375 cells expressing human R408W PAH; 24 hrs compound incubation; 13C-Tyrosine by LC-MS; average where tested multiple times; read-out: AC50.
T1 construct: expressed in transfected cells
T1 sequence (P00439 1-452 R408W): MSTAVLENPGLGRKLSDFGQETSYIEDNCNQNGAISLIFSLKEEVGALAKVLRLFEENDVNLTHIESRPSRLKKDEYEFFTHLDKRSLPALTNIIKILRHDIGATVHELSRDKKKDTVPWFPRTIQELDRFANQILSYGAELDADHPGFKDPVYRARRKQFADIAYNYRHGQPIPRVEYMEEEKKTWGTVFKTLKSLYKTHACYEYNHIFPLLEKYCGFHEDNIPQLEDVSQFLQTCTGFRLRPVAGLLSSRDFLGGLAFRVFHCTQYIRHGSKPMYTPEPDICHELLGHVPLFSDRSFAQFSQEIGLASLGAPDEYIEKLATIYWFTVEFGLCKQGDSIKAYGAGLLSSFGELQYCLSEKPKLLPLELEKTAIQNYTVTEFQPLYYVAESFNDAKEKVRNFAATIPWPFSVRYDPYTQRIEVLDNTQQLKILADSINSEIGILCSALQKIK
For `CN(C)CCn1nccc1C(=O)N1CCc2[nH]cnc2[C@@H]1c1nc2c(F)cccc2s1` [Example 1762, (R)-(1-(2-(dimethylamino)ethyl)-1H-pyrazol-5-yl)(4-(4-fluorobenzo[d]thiazol-2-yl)-6,7-dihydro-1H-imidazo[4,5-c]pyridin-5(4H)-yl)methanone], the AC50 was 1 to 5 µM. With `O=C(c1cnn2ccccc12)N1CCc2[nH]cnc2[C@H]1c1nc2ccccc2s1` [Example 1009] the AC50 was under 0.5 µM. Work on `Cc1nc(C2(O)CCC2)oc1C(=O)N1CCc2[nH]cnc2[C@@H]1c1nc2c(F)cccc2s1` [Example 1914, (R)-(4-(4-fluorobenzo[d]thiazol-2-yl)-6,7-dihydro-1H-imidazo[4,5-c]pyridin-5(4H)-yl)(2-(1-hydroxycyclobutyl)-4-methyloxazol-5-yl)methanone] yielded an AC50 of 1 to 5 µM. `Cn1nc(C2CCC2)cc1C(=O)N1CCc2[nH]cnc2[C@H]1c1nc2c(F)cccc2s1` [Example 1853] gave an AC50 of 1 to 5 µM. `O=C(c1oc(C2(O)CC2)nc1C(F)F)N1CCc2[nH]cnc2[C@@H]1c1nc2c(F)cccc2s1` [Example 1996, (R)-(4-(difluoromethyl)-2-(1-hydroxycyclopropyl)oxazol-5-yl)(4-(4-fluorobenzo[d]thiazol-2-yl)-6,7-dihydro-1H-imidazo[4,5-c]pyridin-5(4H)-yl)methanone] showed an AC50 of 1 to 5 µM. `Cc1ncoc1C(=O)N1CCc2[nH]cnc2[C@H]1c1nc2ccccc2[nH]1` [Example 993, (S)-(4-(1H-benzo[d]imidazol-2-yl)-6,7-dihydro-1H-imidazo[4,5-c]pyridin-5(4H)-yl)(4-methyloxazol-5-yl)methanone] showed an AC50 of under 0.5 µM. In the case of `CC(F)c1nc(C(F)F)c(C(=O)N2CCc3[nH]cnc3[C@H]2c2nc3c(F)cccc3s2)o1` (single isomer, unassigned) [Example 2073], the AC50 is reported as under 0.5 µM. In the case of `Cc1csc(CCC(=O)N2CCc3[nH]cnc3[C@@H]2c2nc3ccccc3s2)n1` [Example 1080, (R)-1-(4-(benzo[d]thiazol-2-yl)-6,7-dihydro-1H-imidazo[4,5-c]pyridin-5(4H)-yl)-3-(4-methylthiazol-2-yl)propan-1-one], the AC50 is reported as over 5 µM. With `O=C(CC1CCC1)N1CCc2[nH]cnc2[C@@H]1c1nc2ccccc2s1` [Example 1308, (R)-1-(4-(benzo[d]thiazol-2-yl)-6,7-dihydro-1H-imidazo[4,5-c]pyridin-5(4H)-yl)-2-cyclobutylethanone] the AC50 was 1 to 5 µM. Compound `COCc1ncc(C(=O)N2CCc3[nH]cnc3[C@@H]2c2nc3ccccc3s2)s1` [Example 1186, (R)-(4-(benzo[d]thiazol-2-yl)-6,7-dihydro-1H-imidazo[4,5-c]pyridin-5(4H)-yl)(2-(methoxymethyl)thiazol-5-yl)methanone] has an AC50 of 1 to 5 µM. `O=C(CC1CC1)N1CCc2[nH]cnc2[C@@H]1c1nc2ccccc2[nH]1` [Example 1000, (R)-1-(4-(1H-benzo[d]imidazol-2-yl)-6,7-dihydro-1H-imidazo[4,5-c]pyridin-5(4H)-yl)-2-cyclopropylethanone] showed an AC50 of 1 to 5 µM. In the case of `O=C(C1CN(c2ncccc2F)C1)N1CCc2[nH]cnc2[C@@H]1c1nc2ccccc2s1` [Example 1910, (R)-(4-(benzo[d]thiazol-2-yl)-6,7-dihydro-1H-imidazo[4,5-c]pyridin-5(4H)-yl)(1-(3-fluoropyridin-2-yl)azetidin-3-yl)methanone], the AC50 is reported as over 5 µM. `Cn1nc(Cl)nc1C(=O)N1CCc2[nH]cnc2[C@@H]1c1nc2c(F)cccc2s1` [Example 1956, (R)-(3-chloro-1-methyl-1H-1,2,4-triazol-5-yl)(4-(4-fluorobenzo[d]thiazol-2-yl)-6,7-dihydro-1H-imidazo[4,5-c]pyridin-5(4H)-yl)methanone] was tested, and the AC50 was 1 to 5 µM. For `O=C(c1cnn2ccc(Cl)cc12)N1CCc2[nH]cnc2[C@H]1c1nc2ccc(Br)cc2[nH]1` [Example 965, (S)-(4-(6-bromo-1H-benzo[d]imidazol-2-yl)-6,7-dihydro-1H-imidazo[4,5-c]pyridin-5(4H)-yl)(5-chloropyrazolo[1,5-a]pyridin-3-yl)methanone], the AC50 was 1 to 5 µM. With `Cn1nc(Cl)nc1C(=O)N1CCc2[nH]cnc2[C@H]1c1nc2ccccc2s1` [Example 1937] the AC50 was 0.5 to 1 µM. In the case of `O=C(c1oc(N2CCC(F)CC2)nc1C(F)F)N1CCc2[nH]cnc2[C@H]1c1nc2ccccc2s1` [Example 1707], the AC50 is reported as under 0.5 µM. `Cc1ncoc1C(=O)N1C[C@H](C)c2[nH]cnc2[C@@H]1c1nc2ccccc2s1` [Example 1545, ((4R,7S)-4-(benzo[d]thiazol-2-yl)-7-methyl-1,4,6,7-tetrahydro-5H-imidazo[4,5-c]pyridin-5-yl)(4-methyloxazol-5-yl)methanone] gave an AC50 of over 5 µM. In the case of `CN1CCN(c2nc(C(F)(F)F)c(C(=O)N3CCc4[nH]cnc4[C@H]3c3nc4c(F)cccc4s3)o2)CC1` [Example 1623, (S)-(4-(4-fluorobenzo[d]thiazol-2-yl)-6,7-dihydro-1H-imidazo[4,5-c]pyridin-5(4H)-yl)(2-(4-methylpiperazin-1-yl)-4-(trifluoromethyl)oxazol-5-yl)methanone], the AC50 is reported as under 0.5 µM. Work on `Cn1nccc1C(=O)N1CCc2[nH]cnc2[C@@H]1c1nc2c(F)cccc2s1` [Example 1604, (R)-(4-(4-fluorobenzo[d]thiazol-2-yl)-6,7-dihydro-1H-imidazo[4,5-c]pyridin-5(4H)-yl)(1-methyl-1H-pyrazol-5-yl)methanone] yielded an AC50 of over 5 µM. `O=C(c1cn[nH]c1Cl)N1CCc2[nH]cnc2[C@H]1c1nc2c(F)cccc2s1` [Example 1862] was tested, and the AC50 was 0.5 to 1 µM. Work on `C[C@@H](O)c1nc(C(F)F)c(C(=O)N2CCc3[nH]cnc3[C@H]2c2nc3c(F)cccc3s2)o1` [Example 1980, (4-(difluoromethyl)-2-((R)-1-hydroxyethyl)oxazol-5-yl) ((S)-4-(4-fluorobenzo[d]thiazol-2-yl)-6,7-dihydro-1H-imidazo[4,5-c]pyridin-5(4H)-yl)methanone] yielded an AC50 of under 0.5 µM. `Cn1cc(C(F)(F)C(=O)N2CCc3[nH]cnc3[C@H]2c2nc3ccccc3s2)cn1` [Example 1555] showed an AC50 of 1 to 5 µM. `Cc1nc(C2(O)CC2)oc1C(=O)N1CCc2[nH]cnc2[C@H]1c1nc2c(F)cccc2s1` [Example 1949, (S)-(4-(4-fluorobenzo[d]thiazol-2-yl)-6,7-dihydro-1H-imidazo[4,5-c]pyridin-5(4H)-yl)(2-(1-hydroxycyclopropyl)-4-methyloxazol-5-yl)methanone] was tested, and the AC50 was 0.5 to 1 µM.

Same assay, conditions: A375 cells expressing human R408W PAH; 24 hrs with compound; 13C-Tyrosine by LC-MS; average where tested multiple times; read-out: AC50
`Cc1nnc(CCC(=O)N2CCc3[nH]cnc3C2c2nc3cccc(F)c3s2)s1` (stereo not shown) showed an AC50 of 1 to 5 µM. In the case of `Cn1cnc(C(=O)N2CCc3[nH]cnc3C2c2nc3c(F)cccc3s2)n1` (stereo not shown), the AC50 is reported as over 5 µM. `O=C(Cc1nncs1)N1CCc2[nH]cnc2C1c1nc2c(F)cccc2s1` (stereo not shown) was tested, and the AC50 was over 5 µM. Work on `CC(C)(C)CCC(=O)N1CCc2[nH]cnc2C1c1nc2cc(F)ccc2s1` (stereo not shown) yielded an AC50 of 1 to 5 µM. `O=C(Cc1ccccn1)N1CCc2[nH]cnc2C1c1nc2ccccc2s1` (stereo not shown) was tested, and the AC50 was over 5 µM. For `O=C(c1nc2ccc(F)cc2s1)N1CCc2[nH]cnc2C1c1nc2ccccc2s1` (stereo not shown), the AC50 was 1 to 5 µM. With `CC1CN(C(=O)c2nnc(C(C)(C)O)o2)C(c2nc3ccccc3s2)c2nc[nH]c21` (stereo not shown) [listing 1 of 2 here] the AC50 was over 5 µM. `CC(C)(O)c1noc(C(=O)N2CCc3[nH]cnc3C2c2nc3c(F)cccc3s2)n1` (stereo not shown) gave an AC50 of over 5 µM. `CC1CN(C(=O)c2nnc(C(C)(C)O)o2)C(c2nc3ccccc3s2)c2nc[nH]c21` (stereo not shown) [listing 2 of 2 here] showed an AC50 of over 5 µM. `NC(=O)c1ncoc1C(=O)N1CCc2[nH]cnc2C1c1nc2ccccc2s1` (stereo not shown) showed an AC50 of over 5 µM. Compound `CN(C)Cc1ccc2c(C(=O)N3CC4(CC4)c4[nH]cnc4C3c3nc4ccccc4s3)cnn2c1` (stereo not shown) has an AC50 of 1 to 5 µM.
